Laboratory results: ChEMBL document CHEMBL4002571, “Novel designed VmCT1 analogs with increased antimicrobial activity” (Eur J Med Chem, 2017)
Calls of active or inactive are those of the source. No cut-off for these calls is given here.

Columns and labels:
Escherichia coli [1] = assay: Antibacterial activity against Escherichia coli SBS 363 after 18 hrs by liquid growth inhibition assay; assay type: functional; details: SBS 363, 18 h, read-out: MIC100
Enterobacter cloacae [2] = assay: Antibacterial activity against Enterobacter cloacae beta-12 after 18 hrs by liquid growth inhibition assay; assay type: functional; details: beta-12, 18 h, read-out: MIC100
Candida tropicalis = assay: Antifungal activity against Candida tropicalis IOC 4560 after 18 hrs by liquid growth inhibition assay; assay type: functional; details: IOC 4560, 18 h, read-out: MIC100
Cladosporium herbarum [3] = assay: Antifungal activity against Cladosporium herbarum after 72 hrs by liquid growth inhibition assay; assay type: functional; details: read-out: MIC100
Micrococcus luteus = assay: Antibacterial activity against Micrococcus luteus A270 after 18 hrs by liquid growth inhibition assay; assay type: functional; details: A270, 18 h, read-out: MIC100
[4] = system: Staphylococcus epidermidis; assay: Antibacterial activity against Staphylococcus epidermidis ATCC 12228 after 18 hrs by liquid growth inhibition assay; assay type: functional; details: ATCC 12228, 18 h, read-out: MIC100
Aspergillus niger [5] = assay: Antifungal activity against Aspergillus niger after 72 hrs by liquid growth inhibition assay; assay type: functional; details: read-out: MIC100
Staphylococcus aureus [6] = assay: Antibacterial activity against Staphylococcus aureus ATCC 29213 after 18 hrs by liquid growth inhibition assay; assay type: functional; details: ATCC 29213, 18 h, read-out: MIC100
Erythrocyte = assay: Hemolytic activity in human erythrocytes after 1 hr; assay type: ADME, cell-based
Pseudomonas aeruginosa [7] = assay: Antibacterial activity against Pseudomonas aeruginosa ATCC 27853 after 18 hrs by liquid growth inhibition assay; assay type: functional; details: ATCC 27853, 18 h, read-out: MIC100
Bacillus spizizenii [8] = assay: Antibacterial activity against Bacillus subtilis ATCC 6633 after 18 hrs by liquid growth inhibition assay; assay type: functional; details: ATCC 6633, 18 h, read-out: MIC100
Cryptococcus neoformans = assay: Antifungal activity against Cryptococcus neoformans after 18 hrs by liquid growth inhibition assay; assay type: functional; details: read-out: MIC100
Candida parapsilosis [9] = assay: Antifungal activity against Candida parapsilosis IOC 4564 after 18 hrs by liquid growth inhibition assay; assay type: functional; details: Lodderomyces parapsilosis, IOC 4564, 18 h; read-out: MIC100
Serratia marcescens = assay: Antibacterial activity against Serratia marcescens ATCC 4112 after 18 hrs by liquid growth inhibition assay; assay type: functional; details: ATCC 4112, 18 h, read-out: MIC100
Candida albicans = assay: Antifungal activity against Candida albicans MDM8 after 18 hrs by liquid growth inhibition assay; assay type: functional; details: MDM8, 18 h, read-out: MIC100
Escherichia coli [10] = assay: Antibacterial activity against Escherichia coli D31 after 18 hrs by liquid growth inhibition assay; assay type: functional; details: D31, 18 h, read-out: MIC100
Bacillus spizizenii [11] = assay: Antibacterial activity against Bacillus subtilis ATCC 6633 measured every 4 hrs by broth micro-dilution method; assay type: functional; details: ATCC 6633, 4 h
Staphylococcus aureus [12] = assay: Antibacterial activity against Staphylococcus aureus ATCC 25923 measured every 4 hrs by broth micro-dilution method; assay type: functional; details: ATCC 25923, 4 h
Escherichia coli [13] = assay: Antibacterial activity against Escherichia coli ATCC 25922 measured every 4 hrs by broth micro-dilution method; assay type: functional; details: ATCC 25922, 4 h
Pseudomonas aeruginosa [14] = assay: Antibacterial activity against Pseudomonas aeruginosa ATCC 9027 measured every 4 hrs by broth micro-dilution method; assay type: functional; details: ATCC 9027, 4 h
Candida parapsilosis [15] = assay: Antifungal activity against Candida parapsilosis IOC 4564 up to 50 umol/L after 18 hrs by liquid growth inhibition assay; assay type: functional
Bacillus spizizenii [16] = assay: Antibacterial activity against Bacillus subtilis ATCC 6633 up to 50 umol/L after 18 hrs by liquid growth inhibition assay; assay type: functional
Escherichia coli [17] = assay: Antibacterial activity against Escherichia coli SBS 363 up to 50 umol/L after 18 hrs by liquid growth inhibition assay; assay type: functional
Aspergillus niger [18] = assay: Antifungal activity against Aspergillus niger up to 50 umol/L after 72 hrs by liquid growth inhibition assay; assay type: functional
Enterobacter cloacae [19] = assay: Antibacterial activity against Enterobacter cloacae beta-12 up to 50 umol/L after 18 hrs by liquid growth inhibition assay; assay type: functional
Cladosporium herbarum [20] = assay: Antifungal activity against Cladosporium herbarum up to 50 umol/L after 72 hrs by liquid growth inhibition assay; assay type: functional

| Substance | MIC (Escherichia coli [1]) [µM] | MIC (Enterobacter cloacae [2]) [µM] | MIC (Candida tropicalis) [µM] | MIC (Cladosporium herbarum [3]) [µM] | MIC (Micrococcus luteus) [µM] | MIC [4] [µM] | MIC (Aspergillus niger [5]) [µM] | MIC (Staphylococcus aureus [6]) [µM] | MHC (Erythrocyte) [µmol/L] | MIC (Pseudomonas aeruginosa [7]) [µM] | MIC (Bacillus spizizenii [8]) [µM] | MIC (Cryptococcus neoformans) [µM] | MIC (Candida parapsilosis [9]) [µM] | MIC (Serratia marcescens) [µM] | MIC (Candida albicans) [µM] | MIC (Escherichia coli [10]) [µM] | other results |
| --- | --- | --- | --- | --- | --- | --- | --- | --- | --- | --- | --- | --- | --- | --- | --- | --- | --- |
| H-FLGALWEVAKSVF-NH2 | 12.5 | 25 | 12.5 | 25 | 1.56 | 6.25 | 25 | 6.25 | 1.6 | 0.78 | 12.5 | 6.25 | 50 | 1.56 | 12.5 | 12.5 | – |
| H-FLGALWKVAKSVF-NH2 | 1.56 | 6.25 | 1.56 | 12.5 | 1.56 | 1.56 | 6.25 | 1.56 | 1.6 | 0.39 | 3.12 | 1.56 | 1.56 | 0.78 | 1.56 | 1.56 | – |
| H-FLGALWNVAKKVF-NH2 | 1.56 | 6.25 | 3.12 | 6.25 | 1.56 | 1.56 | 6.25 | 1.56 | 1.6 | 0.39 | 6.25 | 1.56 | 6.25 | 0.78 | 1.56 | 1.56 | – |
| H-FLGALWNVAKSVF-NH2 | – | 25 | 6.25 | 50 | 1.56 | 3.12 | 25 | 3.12 | 6.25 | 0.78 | 25 | 3.12 | 25 | 1.56 | 12.5 | 3.12 | MIC (Bacillus spizizenii [11]): 20 µM; MIC (Staphylococcus aureus [12]): 10 µM; MIC (Escherichia coli [13]): 25 µM; MIC (Pseudomonas aeruginosa [14]): 10 µM |
| H-FLGALWNVWKSVF-NH2 | 1.56 | 6.25 | 6.25 | 50 | 1.56 | 3.12 | 50 | 1.56 | 1.6 | 0.78 | 6.25 | 3.12 | 50 | 1.56 | 1.56 | 1.56 | – |
| H-FLGELWNVAKSVF-NH2 | – | – | 12.5 | – | 25 | 50 | – | 50 | 25 | 3.12 | – | 12.5 | – | 3.12 | 50 | 50 | growth inhibition (GI) (Candida parapsilosis [15]): inactive; growth inhibition (GI) (Bacillus spizizenii [16]): inactive; growth inhibition (GI) (Escherichia coli [17]): inactive; growth inhibition (GI) (Aspergillus niger [18]): inactive; growth inhibition (GI) (Enterobacter cloacae [19]): inactive; growth inhibition (GI) (Cladosporium herbarum [20]): inactive |
| H-FLGELWNVWKSVF-NH2 | 12.5 | 50 | 12.5 | – | 3.12 | 6.25 | – | 12.5 | 1.6 | 3.12 | 12.5 | 6.25 | – | 3.12 | 6.25 | 6.25 | growth inhibition (GI) (Candida parapsilosis [15]): inactive; growth inhibition (GI) (Aspergillus niger [18]): inactive; growth inhibition (GI) (Cladosporium herbarum [20]): inactive |
| H-FLKALWNVAKSVF-NH2 | 1.56 | 6.25 | 3.12 | 25 | 0.78 | 3.12 | 12.5 | 3.12 | 1.6 | 0.78 | 6.25 | 3.12 | 6.25 | 1.56 | 3.12 | 1.56 | – |
